Measured values as given in ChEMBL document CHEMBL5360655, “Design, Synthesis, and Biological Evaluation of Novel P2X7 Receptor Antagonists for the Treatment of Septic Acute Kidney Injury” (J Med Chem, 2023).
pIC50: −log10 of the molar value. Calls of active or inactive are those of the source. The calls are words filed in the database; no cut-off is given here.

Legend:
[1] = test system: HEK293; assay: Cytotoxicity against human HEK293 cells transfected with human P2X7 receptor assessed as effect on cell viability at 1 to 4 uM incubated for 2 hrs by CCK8 assay; type: toxicity, cell-based; conditions: hek293, 2 h, dose 1-4 µM
[2] = Half life in BALB/c mouse at 10 mg/kg, iv measured for 24 hrs by LC-MS/MS analysis; type: ADME, organism-based; conditions: in vivo
[3] = test system: HEK293; assay: Cytotoxicity against human HEK293 cells transfected with mouse P2X7 receptor assessed as effect on cell viability at 1 to 4 uM incubated for 2 hrs by CCK8 assay; type: toxicity, cell-based; conditions: hek293, 2 h, dose 1-4 µM
[4] = Cmax in BALB/c mouse at 10 mg/kg, ip measured for 24 hrs by LC-MS/MS analysis; type: ADME, organism-based; design: dose 10 mg/kg, time 24 hrs, route ip; conditions: in vivo
[5] = target: T1, P2X purinoceptor 7 (Homo sapiens, UniProt Q99572); assay: Antagonist activity at P2X7 receptor in human THP-1 cells assessed as inhibition of ATP-induced IL-1beta secretion pretreated with LPS for 3 hrs followed by incubation with compound for 40 mins followed by treatment with ATP for 1 hr by ELISA; type: cell-based
T1 sequence (Q99572 whole entry): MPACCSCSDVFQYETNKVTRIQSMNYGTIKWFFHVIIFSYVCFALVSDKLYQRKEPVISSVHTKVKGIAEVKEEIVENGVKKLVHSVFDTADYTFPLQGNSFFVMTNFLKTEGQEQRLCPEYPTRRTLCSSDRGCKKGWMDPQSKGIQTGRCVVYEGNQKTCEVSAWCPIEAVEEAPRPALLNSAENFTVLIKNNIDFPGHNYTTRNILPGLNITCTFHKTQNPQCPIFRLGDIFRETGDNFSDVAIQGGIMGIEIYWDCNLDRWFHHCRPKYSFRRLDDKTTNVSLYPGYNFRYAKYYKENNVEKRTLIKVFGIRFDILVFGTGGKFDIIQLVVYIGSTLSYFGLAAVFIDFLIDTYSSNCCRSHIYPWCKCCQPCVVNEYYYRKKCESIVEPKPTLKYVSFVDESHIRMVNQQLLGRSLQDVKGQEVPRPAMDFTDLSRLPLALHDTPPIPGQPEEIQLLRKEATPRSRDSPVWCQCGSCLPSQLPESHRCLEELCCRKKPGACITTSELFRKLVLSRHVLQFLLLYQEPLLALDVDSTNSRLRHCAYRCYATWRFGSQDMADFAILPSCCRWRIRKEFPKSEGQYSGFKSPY

[6] = Half life in BALB/c mouse at 10 mg/kg, po measured for 24 hrs by LC-MS/MS analysis; type: ADME, organism-based; conditions: in vivo
[7] = target: T2, P2X purinoceptor 7 (Homo sapiens) (UniProt Q99572); assay: Antagonist activity at human P2X7 receptor expressed in HEK293 cells assessed as inhibition of ATP-induced receptor pore formation at 1 uM by propidium iodide dye uptake based fluorescence analysis; type: cell-based; conditions: filed as antagonist
T2 sequence (whole entry): T1 sequence (Q99572 whole entry)

[8] = Oral bioavailability in BALB/c mouse at 10 mg/kg measured for 24 hrs by LC-MS/MS analysis; type: ADME, organism-based; conditions: in vivo
[9] = test system: Mus musculus; assay: Reno-protective activity against LPS-induced acute kidney injury C57BL/6J mouse model assessed as decrease in serum […] level at 10 mg/kg, ip administered twice at 30 mins prior to LPS challenge and 8 hrs post-LPS challenge and measured at 16 hrs post-LPS challenge; type: functional, organism-based; conditions: time 16.5 hrs
[10] = Intrinsic clearance in human liver microsomes; type: ADME, Microsome; conditions: read-out: CLH
[11] = AUC(0 to t) in BALB/c mouse at 10 mg/kg, ip measured for 24 hrs by LC-MS/MS analysis; type: ADME, organism-based; design: dose 10 mg/kg, time 24 hrs, route ip; conditions: in vivo
[12] = AUC(0 to t) in BALB/c mouse at 10 mg/kg, po measured for 24 hrs by LC-MS/MS analysis; type: ADME, organism-based; design: time 24 hrs, dose 10 mg/kg, route po; conditions: in vivo
[13] = target: T3, P2X purinoceptor 7 (Mus musculus, UniProt Q9Z1M0); assay: Antagonist activity at mouse P2X7 receptor expressed in HEK293 cells assessed as inhibition of ATP-induced receptor pore formation by propidium iodide dye uptake based fluorescence analysis; type: cell-based
T3 sequence (Q9Z1M0 whole entry): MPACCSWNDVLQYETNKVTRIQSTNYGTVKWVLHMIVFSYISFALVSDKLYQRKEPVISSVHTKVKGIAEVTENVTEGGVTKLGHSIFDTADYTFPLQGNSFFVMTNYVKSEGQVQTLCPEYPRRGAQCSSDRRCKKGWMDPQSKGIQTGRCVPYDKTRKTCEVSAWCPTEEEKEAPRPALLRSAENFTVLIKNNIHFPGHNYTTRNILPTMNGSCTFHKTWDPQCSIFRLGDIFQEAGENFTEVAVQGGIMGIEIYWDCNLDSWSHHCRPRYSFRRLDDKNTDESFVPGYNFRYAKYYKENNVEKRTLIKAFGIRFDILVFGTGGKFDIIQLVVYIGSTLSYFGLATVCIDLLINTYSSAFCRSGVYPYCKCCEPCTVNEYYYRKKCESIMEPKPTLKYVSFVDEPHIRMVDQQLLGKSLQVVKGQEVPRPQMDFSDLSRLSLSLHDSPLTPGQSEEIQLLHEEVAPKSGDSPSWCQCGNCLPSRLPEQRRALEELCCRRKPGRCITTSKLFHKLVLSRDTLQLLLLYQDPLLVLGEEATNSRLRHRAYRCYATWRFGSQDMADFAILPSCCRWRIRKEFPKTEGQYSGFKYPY

[14] = target: T4, P2X purinoceptor 7 (Mus musculus) (UniProt Q9Z1M0); assay: Antagonist activity at mouse P2X7 receptor expressed in HEK293 cells assessed as inhibition of ATP-induced receptor pore formation at 200 nM by propidium iodide dye uptake based fluorescence analysis; type: cell-based; conditions: filed as antagonist
T4 sequence (whole entry): T3 sequence (Q9Z1M0 whole entry)

[15] = target: T1, P2X purinoceptor 7; assay: Antagonist activity at human P2X7 receptor expressed in HEK293 cells assessed as inhibition of ATP-induced receptor pore formation by propidium iodide dye uptake based fluorescence analysis; type: cell-based
[16] = Cmax in BALB/c mouse at 10 mg/kg, iv measured for 24 hrs by LC-MS/MS analysis; type: ADME, organism-based; design: time 24 hrs, dose 10 mg/kg, route iv; conditions: in vivo
[17] = AUC(0 to t) in BALB/c mouse at 10 mg/kg, iv measured for 24 hrs by LC-MS/MS analysis; type: ADME, organism-based; design: time 24 hrs, dose 10 mg/kg, route iv; conditions: in vivo
[18] = Half life in mouse liver microsomes; type: ADME, Microsome
[19] = Intrinsic clearance in mouse liver microsomes; type: ADME, Microsome; conditions: read-out: CLH
[20] = Clearance in BALB/c mouse at 10 mg/kg, po measured for 24 hrs by LC-MS/MS analysis; type: ADME, organism-based; conditions: in vivo
[21] = Half life in BALB/c mouse at 10 mg/kg, ip measured for 24 hrs by LC-MS/MS analysis; type: ADME, organism-based; conditions: in vivo
[22] = target: T4, P2X purinoceptor 7 (Mus musculus); assay: Antagonist activity at mouse P2X7 receptor expressed in HEK293 cells assessed as inhibition of ATP-induced receptor pore formation at 1 uM by propidium iodide dye uptake based fluorescence analysis; type: cell-based; conditions: filed as antagonist
[23] = Half life in human liver microsomes; type: ADME, Microsome
[24] = target: T2, P2X purinoceptor 7 (Homo sapiens); assay: Antagonist activity at human P2X7 receptor expressed in HEK293 cells assessed as inhibition of ATP-induced receptor pore formation at 200 nM by propidium iodide dye uptake based fluorescence analysis; type: cell-based
[25] = test system: Mus musculus; assay: Reno-protective activity against LPS-induced acute kidney injury C57BL/6J mouse model assessed as decrease in BUN level at 10 mg/kg, ip administered twice at 30 mins prior to LPS challenge and 8 hrs post-LPS challenge and measured at 16 hrs post-LPS challenge; type: functional, organism-based; conditions: time 16.5 hrs
[26] = Tmax in BALB/c mouse at 10 mg/kg, ip measured for 24 hrs by LC-MS/MS analysis; type: ADME, organism-based; conditions: in vivo
[27] = Tmax in BALB/c mouse at 10 mg/kg, iv measured for 24 hrs by LC-MS/MS analysis; type: ADME, organism-based; conditions: in vivo
[28] = Tmax in BALB/c mouse at 10 mg/kg, po measured for 24 hrs by LC-MS/MS analysis; type: ADME, organism-based; conditions: in vivo
[29] = Cmax in BALB/c mouse at 10 mg/kg, po measured for 24 hrs by LC-MS/MS analysis; type: ADME, organism-based; design: time 24 hrs, dose 10 mg/kg, route po; conditions: in vivo
[30] = Clearance in BALB/c mouse at 10 mg/kg, iv measured for 24 hrs by LC-MS/MS analysis; type: ADME, organism-based; conditions: in vivo
[31] = test system: THP-1; assay: Cytotoxicity against human THP-1 cells assessed as effect on cell viability at 1 to 4 uM incubated for 2 hrs by CCK8 assay; type: toxicity, cell-based; conditions: thp-1, 2 h, dose 1-4 µM
[32] = Clearance in BALB/c mouse at 10 mg/kg, ip measured for 24 hrs by LC-MS/MS analysis; type: ADME, organism-based; conditions: in vivo
[33] = target: T1, P2X purinoceptor 7; assay: Antagonist activity at human P2X7 receptor
[34] = target: T3, P2X purinoceptor 7; assay: Antagonist activity at mouse P2X7 receptor

Compound: CS(=O)(=O)c1ccc(-c2nc(C(=O)NCc3cn(-c4cc(Cl)ccn4)nn3)cs2)cc1
- Activity [1]: Non-Toxic
- half-life [2]: 1.96 h
- Activity [3]: Non-Toxic
- Cmax [4]: 3650 ng/mL
- pIC50 [5]: 6.45
- half-life [6]: 2.29 h
- inhibition [7]: 68%
- bioavailability [8]: 86.4%
- Activity [9]: Active
- CLint scaled [10]: < 12 mL/min/kg
- AUC(0-t) at 24 h [11]: 9930 ng·h/mL
- AUC(0-t) at 24 h [12]: 4390 ng·h/mL
- pIC50 [13]: 7.44
- inhibition [14]: 105%
- pIC50 [15]: 6.83
- Cmax [16]: 3040 ng/mL
- AUC(0-t) at 24 h [17]: 5080 ng·h/mL
- half-life [18]: > 2 h
- CLint scaled [19]: < 12 mL/min/kg
- CL/F [20]: 40.8 mL/min/kg
- half-life [21]: 3.94 h
- inhibition [22]: 99.5%
- half-life [23]: > 2 h
- inhibition ([24]; filed as antagonist): 42.1%
- Activity [25]: Active
- Tmax [26]: 0.38 h
- Tmax [27]: 0.08 h
- Tmax [28]: 2 h
- Cmax [29]: 776 ng/mL
- clearance [30]: 33.2 mL/min/kg
- Activity [31]: Non-Toxic
- CL/F [32]: 16.9 mL/min/kg

Compound: O=C(NCc1ccc(Cl)cc1Cl)C1CCC(=O)N1c1ccoc1 (stereo not given)
- pIC50 [33]: 6.70

Compound: CS(=O)(=O)c1ccc(-c2ncc(C(=O)NCc3cn(-c4cc(Br)ccn4)nn3)s2)cc1
- Activity [1]: Non-Toxic
- half-life [2]: 7.87 h
- Activity [3]: Non-Toxic
- Cmax [4]: 3660 ng/mL
- pIC50 [5]: 6.54
- half-life [6]: 2.66 h
- inhibition [7]: 100%
- bioavailability [8]: 17.5%
- Activity [9]: Active
- CLint scaled [10]: < 12 mL/min/kg
- AUC(0-t) at 24 h [11]: 24400 ng·h/mL
- AUC(0-t) at 24 h [12]: 7140 ng·h/mL
- pIC50 [13]: 7.91
- inhibition [14]: 114%
- pIC50 [15]: 6.78
- Cmax [16]: 3410 ng/mL
- AUC(0-t) at 24 h [17]: 40900 ng·h/mL
- half-life [18]: > 2 h
- CLint scaled [19]: < 12 mL/min/kg
- CL/F [20]: 26.3 mL/min/kg
- half-life [21]: 8.17 h
- inhibition [22]: 114%
- half-life [23]: > 2 h
- inhibition ([24]; filed as antagonist): 56.9%
- Activity [25]: Active
- Tmax [26]: 4 h
- Tmax [27]: 1.39 h
- Tmax [28]: 2 h
- Cmax [29]: 1010 ng/mL
- clearance [30]: 3.67 mL/min/kg
- Activity [31]: Non-Toxic
- CL/F [32]: 6.83 mL/min/kg

Compound: O=C1C=C(n2cc(CCCl)nn2)C(=O)c2c(O)cccc21
- pIC50 [33]: 5.96
- pIC50 [34]: 5.82

Compound: CC1=C(C(c2ccc(Cl)cc2)n2cc(COCc3ccco3)nn2)C(=O)c2ccccc2C1=O (stereo not given)
- pIC50 [33]: 6.99

Compound: CS(=O)(=O)c1ccc(-c2ncc(C(=O)NCc3cn(-c4cc(Cl)ccn4)nn3)s2)cc1
- Activity [1]: Non-Toxic
- half-life [2]: 4.94 h
- Activity [3]: Non-Toxic
- Cmax [4]: 1470 ng/mL
- pIC50 [5]: 6.20
- half-life [6]: 2.1 h
- inhibition [7]: 53.6%
- bioavailability [8]: 37.3%
- Activity [9]: Active
- CLint scaled [10]: < 12 mL/min/kg
- AUC(0-t) at 24 h [11]: 12000 ng·h/mL
- AUC(0-t) at 24 h [12]: 29100 ng·h/mL
- pIC50 [13]: 7.57
- inhibition [14]: 101%
- pIC50 [15]: 6.53
- Cmax [16]: 25800 ng/mL
- AUC(0-t) at 24 h [17]: 77900 ng·h/mL
- half-life [18]: > 2 h
- CLint scaled [19]: < 12 mL/min/kg
- CL/F [20]: 5.83 mL/min/kg
- half-life [21]: 3.98 h
- inhibition [22]: 100%
- half-life [23]: > 2 h
- inhibition [24]: 38.2%
- Activity [25]: Active
- Tmax [26]: 4.67 h
- Tmax [27]: 0.08 h
- Tmax [28]: 2 h
- Cmax [29]: 6500 ng/mL
- clearance [30]: 2 mL/min/kg
- Activity [31]: Non-Toxic
- CL/F [32]: 13.5 mL/min/kg
